Source: BigSolDB 2.1

COc1cc(CO)ccc1O
solubility (mole fraction)
Conditions | in acetonitrile | in ethanol | in ethyl acetate | in isopentanol | in isopropanol | in n-butanol | in n-butyl acetate | in n-pentanol
293.15 K | 0.0172 | 0.0442 | 0.0176 | 0.0225 | 0.0284 | 0.0234 | 0.0098 | 0.0214
303.15 K | 0.0262 | 0.0627 | 0.0296 | 0.0302 | 0.0418 | 0.0393 | 0.0177 | 0.0338
313.15 K | 0.0415 | 0.0936 | 0.0393 | 0.0447 | 0.0578 | 0.0538 | 0.027 | 0.049
323.15 K | 0.0713 | 0.142 | 0.0682 | 0.0652 | 0.0957 | 0.0902 | 0.0428 | 0.0728
333.15 K | 0.127 | 0.205 | 0.1 | 0.0912 | 0.149 | 0.134 | 0.0653 | 0.102
343.15 K | 0.22 | 0.317 | 0.163 | 0.14 | 0.237 | 0.182 | 0.107 | 0.155
